From US9265268B2, “Method of handling bananas” (priority 2009, dated 2016)

Test system: bananas
Test: Example US-7a: various number of bananas per bag (appearance)
Assay type: in vivo, Musa
Parameters: scale not given here
Settings: 1,000 ppb 1-MCP, Day Number 7
Experimental: Bananas were handled and tested as in Example US-1, except that the number of bananas per bag was varied. Concentration of 1-MCP was 1,000 ppb. Also, two different types of MAP bags were used: type M and type D, as described above. Bananas were evaluated on day #7 after treatment with 1-MCP.

Compound: CC1=CC1 [1-MCP, 1-methylcyclopropene]
- Color Stage (MAP type D, 1 bananas per bag): 6.7
- Sugar Spots (MAP type D, 1 bananas per bag): 0.7
- Color Stage (MAP type D, 2 bananas per bag): 5.5
- Sugar Spots (MAP type D, 2 bananas per bag): 1.0
- Color Stage (MAP type D, 3 bananas per bag): 5.5
- Sugar Spots (MAP type D, 3 bananas per bag): 0.3
- Color Stage (MAP type D, 4 bananas per bag): 5.5
- Sugar Spots (MAP type D, 4 bananas per bag): 0.7
- Color Stage (MAP type D, 5 bananas per bag): 4.8
- Sugar Spots (MAP type D, 5 bananas per bag): 1.3
- Color Stage (MAP type D, 6 bananas per bag): 5.2
- Sugar Spots (MAP type D, 6 bananas per bag): 0.3
- Color Stage (MAP type D, 7 bananas per bag): 4.8
- Sugar Spots (MAP type D, 7 bananas per bag): 0.7
- Color Stage (MAP type D, 8 bananas per bag): 4.5
- Sugar Spots (MAP type D, 8 bananas per bag): 0.0
- Color Stage (MAP type D, 9 bananas per bag): 4.5
- Sugar Spots (MAP type D, 9 bananas per bag): 0.7
- Color Stage (MAP type D, 10 bananas per bag): 4.5
- Sugar Spots (MAP type D, 10 bananas per bag): 0.0
- Color Stage (MAP type D, 11 bananas per bag): 4.3
- Sugar Spots (MAP type D, 11 bananas per bag): 0.0
- Color Stage (MAP type D, 12 bananas per bag): 4.5
- Sugar Spots (MAP type D, 12 bananas per bag): 0.0
- Color Stage (MAP type M, 1 bananas per bag): 6.2
- Sugar Spots (MAP type M, 1 bananas per bag): 2.0
- Color Stage (MAP type M, 2 bananas per bag): 5.3
- Sugar Spots (MAP type M, 2 bananas per bag): 1.7
- Color Stage (MAP type M, 3 bananas per bag): 4.8
- Sugar Spots (MAP type M, 3 bananas per bag): 2.0
- Color Stage (MAP type M, 4 bananas per bag): 5.3
- Sugar Spots (MAP type M, 4 bananas per bag): 1.0
- Color Stage (MAP type M, 5 bananas per bag): 5.2
- Sugar Spots (MAP type M, 5 bananas per bag): 1.0
- Color Stage (MAP type M, 6 bananas per bag): 4.8
- Sugar Spots (MAP type M, 6 bananas per bag): 1.0
- Color Stage (MAP type M, 7 bananas per bag): 5.0
- Sugar Spots (MAP type M, 7 bananas per bag): 0.0
- Color Stage (MAP type M, 8 bananas per bag): 4.5
- Sugar Spots (MAP type M, 8 bananas per bag): 1.0
- Color Stage (MAP type M, 9 bananas per bag): 4.5
- Sugar Spots (MAP type M, 9 bananas per bag): 0.7
- Color Stage (MAP type M, 10 bananas per bag): 5.2
- Sugar Spots (MAP type M, 10 bananas per bag): 1.0
- Color Stage (MAP type M, 11 bananas per bag): 4.5
- Sugar Spots (MAP type M, 11 bananas per bag): 0.0
- Color Stage (MAP type M, 12 bananas per bag): 4.5
- Sugar Spots (MAP type M, 12 bananas per bag): 0.0
